Assay results as given in PMC10507113, “Function and phylogeny support the independent evolution of an ASIC-like Deg/ENaC channel in the Placozoa” (Communications Biology, 2023).

Experiments:
TadNaC2 = target: T1, TadNaC2 (Trichoplax adhaerens, UniProt A0A5J6BSS6); assay: whole-cell patch clamp, CHO-K1, amiloride dose-response of peak inward current; format: cell-based
T1 construct: gene ASIC2; full-length cDNA cloned from whole-animal RNA, untagged in pIRES2-EGFP (pTadNaC2-IR-EGFP), CHO-K1 cells; homotrimer modelled; residues F70, T72, D75, E77, H80, E104, E105, H109, W165, F188, L198, R201, K203, S228, P229, W276, L332, S336, D413
T1 sequence (A0A5J6BSS6 1-548): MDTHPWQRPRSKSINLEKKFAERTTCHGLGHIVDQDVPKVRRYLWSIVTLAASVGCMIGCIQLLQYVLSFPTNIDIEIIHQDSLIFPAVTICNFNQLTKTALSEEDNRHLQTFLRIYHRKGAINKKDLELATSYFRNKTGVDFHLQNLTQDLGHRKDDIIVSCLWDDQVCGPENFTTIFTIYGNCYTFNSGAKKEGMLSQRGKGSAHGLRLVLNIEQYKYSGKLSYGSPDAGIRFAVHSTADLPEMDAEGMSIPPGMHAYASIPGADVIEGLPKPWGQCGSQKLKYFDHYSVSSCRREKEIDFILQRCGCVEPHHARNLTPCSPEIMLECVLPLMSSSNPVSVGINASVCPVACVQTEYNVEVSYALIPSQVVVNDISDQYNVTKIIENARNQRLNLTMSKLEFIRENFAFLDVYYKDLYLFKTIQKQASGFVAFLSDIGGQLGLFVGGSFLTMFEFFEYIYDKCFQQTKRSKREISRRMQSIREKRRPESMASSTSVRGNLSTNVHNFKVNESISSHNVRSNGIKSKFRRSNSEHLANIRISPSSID

mouse ASIC1a (mASIC1a) = target: T2, mouse ASIC1a (mASIC1a) (Mus musculus, UniProt Q6NXK8); assay: whole-cell patch clamp, CHO-K1, single-dose block of peak inward current; format: cell-based; details: read-out: % block at 3 mM
T2 construct: gene Asic1; synthetic full-length subunit, untagged in pIRES2-EGFP (pmASIC1-IR-EGFP), CHO-K1 cells; homotrimer
T2 sequence (Q6NXK8 1-526): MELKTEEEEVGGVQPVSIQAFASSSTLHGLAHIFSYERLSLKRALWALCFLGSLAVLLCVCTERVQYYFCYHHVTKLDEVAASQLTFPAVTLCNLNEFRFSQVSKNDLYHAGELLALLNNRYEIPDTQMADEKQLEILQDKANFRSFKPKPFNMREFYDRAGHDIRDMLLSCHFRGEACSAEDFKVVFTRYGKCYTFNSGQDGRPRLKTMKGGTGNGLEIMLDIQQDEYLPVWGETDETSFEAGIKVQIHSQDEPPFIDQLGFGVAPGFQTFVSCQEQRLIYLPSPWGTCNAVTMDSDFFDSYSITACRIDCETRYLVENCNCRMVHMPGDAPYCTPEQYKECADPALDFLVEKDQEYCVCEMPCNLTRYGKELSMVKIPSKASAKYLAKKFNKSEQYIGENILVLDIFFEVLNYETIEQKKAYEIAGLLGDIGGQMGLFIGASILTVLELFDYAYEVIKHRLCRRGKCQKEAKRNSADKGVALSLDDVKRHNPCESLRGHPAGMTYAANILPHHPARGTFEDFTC

N=C(N)NC(=O)c1nc(Cl)c(N)nc1N [amiloride]
IC50 (TadNaC2): 52 ± 29.6 µM
inhibition at 3000 µM (mouse ASIC1a (mASIC1a)): 73 ± 4.1%
